Assay results reported in US9056865B2, “Pyridine-2-derivatives as smoothened receptor modulators” (Pfizer Inc., priority 2010, dated 2015).

Columns and labels:
human Smo = human Smo (Homo sapiens (Human), UniProt Q99835); assay: Smo radioligand competition binding assay; details: for inhibition at 0.05 µM: 0.05 μM test compound, read-out: Smo % inh. @ 0.05 μM
Procedure: Smo Radioligand Competition Binding Assay
Membranes were prepared from a stable cell line created in HEK293FlpIn-TetR cells (Invitrogen) using Flp recombinase-mediated insertion of the pSecTag-FRT/V5-His vector containing a cDNA encoding amino acids […] of human Smo fused to the murine Igk leader sequence to produce a cell surface expressed Smo 181-781 protein. Hygromycin-resistant clones were obtained and stained for LacZ expression (no expression indicates a correct knock-in of fusion cDNA). LacZ-negative cells were analyzed for binding tritiated Smo antagonists. For membrane preparation, the HEK293 cells expressing Smo 181-781 were grown to 90% confluence in nine to fifteen 245 mm×245 mm×22 mm dishes, washed with Dulbecco's PBS (15 mL per dish) and harvested via scraping in 10 mL of DPBS. The cells were collected and centrifuged at 1500 rpm (400×g) for 10 min at 4° C. The cell pellets were re-suspended in 40 mL of cold DPBS and washed by centrifugation at 2300 rpm (950×g max) for 10 minutes at 4° C. The supernatant was aspirated and the cell pellet was snap frozen in a methanol/dry ice bath and stored at −70° C. For membrane preparation, 15 mL of Membrane Preparation Buffer (50 mM Tris-HCl pH 7.5, 250 mM sucrose with Roche complete protease cocktail tablets) was added to the tube containing the cell pellet, then cells are rapidly thawed, and homogenized using an Ultra-Turrax T8 (IKA Labortechnik) set on “6” for 15 seconds for 5-6 times in icy water bath. This homogenate was diluted up to 50 mL using Membrane Preparation Buffer and centrifuged at 35,000 rpm in a Beckman Ti45 rotor (140,000×g) for 35 minutes at 4° C. followed by aspiration of the supernatant and re-suspension of the pellet in 5 mL of Assay Buffer (50 mM Tris-HCl pH 7.5, 100 mM NaCl, 25 mM MgCl2, 1 mM EDTA, and 0.1% protease free bovine serum albumin). The re-suspended pellet was then homogenized in a glass tissue grinder. The re-suspended membranes were aliquoted (0.5 mL aliquots), snap frozen and stored at −70° C. Total protein in the membrane preparation was determined using the Pierce BCA protein assay (Pierce Chemical).
For the binding competition assay, 100 μL of Assay Buffer was added to all the wells of a 96 well GF/B filter plate (Millipore MultiScreen-HTS-FB cat# MSFBN6B50) for 10 minutes to pre-wet the filter prior to evacuation of the buffer (8 inches Hg for 8 seconds). To the pre-wet wells is added: 20 μL of Assay Buffer, 10 μL diluted test agent, 20 μL of a tritiated Smo antagonist (15 nM stock solution), and 50 μL of membrane preparation (40 μg total protein per well). The plates are sealed and mixed at room temperature for 5 min, incubated at room temperature for 2 hours, then washed 5 times with 100 μL/each of wash buffer and vacuum dried for 8 seconds at 8 inches Hg. The plate is then dried for one hour in a 60° C. oven prior to the addition of 45 μL of Microscint 20 (Packard, #6013621) to each well and incubation at RT for 30 minutes to 1 hour. The plate is counted in a TopCount scintillation counter (Perkin Elmer).
Data analysis uses Excel for % Inhibition and Graphpad Prism for IC50 calculation. Total binding (TB, in the absence of inhibitors)=average of tritiated Smo antagonist 3 nM+Smo membrane (40 μg/wells (approx 5000-7000 CPM)). Non-specific binding (NSB)=average of tritiated Smo antagonist (3 nM)+cold Smo antagonist (30 μM)+Smo membrane (approx 600-1200 CPM). Specific binding (SB)=(total binding−non-specific binding). % Inhibition=[1−(compound Specific binding/control Specific binding)]×100%. IC50 is calculated by fitting the data to the four parameter sigmoidal dose-response curve (variable slope) Y=Bottom+(Top-Bottom)/(1+10^((LogEC50−X)*HillSlope)). X is the logarithm of the inhibitor concentration. Y is the response; Y starts at Bottom and goes to Top with a sigmoid shape.

Gli-Luc/MEF cells = assay: Gli-Luc/MEF assay; type: cell-based, mouse; details: Mus musculus, MEF; Shh-stimulated luciferase, 48 hours
Procedure: The Gli-Luc/MEF cells obtained from Gli-Luc transgenic mice contain a luciferase reporter gene under the control of the Gli response element. Luciferase activity stimulated with Sonic hedgehog ligand was inhibited by Smo inhibitors, and IC50 was subsequently calculated.
Plates were incubated at 37° C. and 5% CO2 overnight. On day two, cells were dosed with test compounds at a final concentration ranging from 3 μM to 50 μM at a 3-time series dilution. Immediately after dosing cells with compounds, recombinant mouse sonic hedgehog (Shh, R&D Systems 464-SH) was added to a final concentration of 2 μg/mL. The cells were incubated with compounds and Shh for 48 hours at 37° C. and 5% CO2. Luciferase assays were conducted on Day 4 using the Bright-Glo Luciferase assay system (Promega E2620) according to Promega's protocol. Briefly, Bright-Glo luciferase reagent was made up and 25 μL were added to each well of the 384-well plate containing media. Plates were kept at room temperature for 5 minutes, and then read on an Envision Luminescence plate reader (Perkin-Elmer). IC50 of the inhibition was calculated by using GraphPad Prism.

human Smo, sequence (Q99835 181-787): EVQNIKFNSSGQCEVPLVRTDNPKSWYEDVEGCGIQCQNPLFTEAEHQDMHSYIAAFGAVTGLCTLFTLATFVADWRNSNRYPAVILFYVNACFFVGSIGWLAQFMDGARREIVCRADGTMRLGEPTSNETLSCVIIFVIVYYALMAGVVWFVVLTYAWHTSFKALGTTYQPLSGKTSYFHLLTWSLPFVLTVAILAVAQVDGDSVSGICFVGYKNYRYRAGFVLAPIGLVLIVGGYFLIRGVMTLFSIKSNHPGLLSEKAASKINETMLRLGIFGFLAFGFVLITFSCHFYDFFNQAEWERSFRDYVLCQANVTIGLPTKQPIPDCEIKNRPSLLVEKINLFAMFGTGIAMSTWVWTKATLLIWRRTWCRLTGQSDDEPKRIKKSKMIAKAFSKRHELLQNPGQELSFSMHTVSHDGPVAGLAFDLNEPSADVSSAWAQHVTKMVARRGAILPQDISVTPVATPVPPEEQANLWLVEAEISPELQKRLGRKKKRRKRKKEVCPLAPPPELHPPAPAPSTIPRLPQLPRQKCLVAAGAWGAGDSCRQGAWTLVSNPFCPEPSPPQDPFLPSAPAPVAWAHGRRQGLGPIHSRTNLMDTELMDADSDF

Work on `Cc1cccnc1-c1cc(N2CCC(C(=O)NC3CCOCC3)CC2)ncc1Cl` [Example A-77, 1-(5′-chloro-3-methyl-2,4′-bipyridin-2′-yl)-N-(tetrahydro-2H-pyran-4-yl)piperidine-4-carboxamide] yielded an IC50 (human Smo) of 0.0525 µM, an inhibition at 0.05 µM (human Smo) of 87.7% and an IC50 (Gli-Luc/MEF cells) of 0.0484 µM.

`CC(C)(O)CC(=O)NC1CCN(c2ccc(Cl)c(-c3ccccn3)n2)CC1` [Example A-131, N-[1-(3-chloro-2,2′-bipyridin-6-yl)piperidin-4-yl]-3-hydroxy-3-methylbutanamide] was tested, and the IC50 (human Smo) was 0.0305 µM, the inhibition at 0.05 µM (human Smo) was 92.7% and the IC50 (Gli-Luc/MEF cells) was 0.0207 µM.

`Cc1cccnc1-c1nc(N2CCN(S(C)(=O)=O)CC2)ncc1Cl` [Example A-33, 5-chloro-4-(3-methylpyridin-2-yl)-2-[4-(methylsulfonyl)piperazin-1-yl]pyrimidine] showed an IC50 (human Smo) of 0.172 µM, an inhibition at 0.05 µM (human Smo) of 76.9% and an IC50 (Gli-Luc/MEF cells) of 0.113 µM.

In the case of `Cc1cccnc1-c1cc(N2CCN(C(=O)CC(C)(C)O)CC2)ncc1Cl` [Example A-47, 4-[4-(5′-chloro-3-methyl-2,4′-bipyridin-2′-yl)piperazin-1-yl]-2-methyl-4-oxobutan-2-ol], the IC50 (human Smo) is reported as 0.0217 µM, the inhibition at 0.05 µM (human Smo) is reported as 95.2% and the IC50 (Gli-Luc/MEF cells) is reported as 0.0363 µM.

For `Cc1cccnc1-c1cc(N2CCN(C(=O)CO)CC2)ncc1Cl` [Example A-25, 2-[4-(5′-chloro-3-methyl-2,4′-bipyridin-2′-yl)piperazin-1-yl]-2-oxoethanol], the IC50 (human Smo) was 0.239 µM, the inhibition at 0.05 µM (human Smo) was 72.1% and the IC50 (Gli-Luc/MEF cells) was 0.197 µM.

For `Cc1cccnc1-c1cc(N2CCC(CNCCS(C)(=O)=O)CC2)ncc1Cl` [Example A-96, N-{[1-(5′-chloro-3-methyl-2,4′-bipyridin-2′-yl)piperidin-4-yl]methyl}-2-(methylsulfonyl)ethanamine], the IC50 (human Smo) was 0.102 µM, the inhibition at 0.05 µM (human Smo) was 84.1% and the IC50 (Gli-Luc/MEF cells) was 0.0625 µM.

With `Cc1cccnc1-c1cc(N2CCC(C(=O)N[C@@H]3CC[C@@H](O)C3)CC2)ncc1Cl` [Example A-66, 1-(5′-chloro-3-methyl-2,4′-bipyridin-2′-yl)-N-[(1R,3R)-3-hydroxycyclopentyl]piperidine-4-carboxamide] the IC50 (human Smo) was 0.162 µM, the inhibition at 0.05 µM (human Smo) was 81.7% and the IC50 (Gli-Luc/MEF cells) was 0.094 µM.

For `CS(=O)(=O)NC1CCN(c2cc(-c3ncc(Cl)cc3Cl)c(Cl)cn2)CC1` [Example A-12, N-[1-(3,5,5′-trichloro-2,4′-bipyridin-2′-yl)piperidin-4-yl]methanesulfonamide], the IC50 (human Smo) was 0.0188 µM, the inhibition at 0.05 µM (human Smo) was 88% and the IC50 (Gli-Luc/MEF cells) was 0.0534 µM.

`Cc1cc(F)cnc1-c1cc(N2CCC(NC(=O)CC(C)(C)O)CC2)ncc1Cl` [Example A-146, N-[1-(5′-chloro-5-fluoro-3-methyl-2,4′-bipyridin-2′-yl)piperidin-4-yl]-3-hydroxy-3-methylbutanamide] gave an IC50 (human Smo) of 0.0522 µM, an inhibition at 0.05 µM (human Smo) of 87.4% and an IC50 (Gli-Luc/MEF cells) of 0.0207 µM.

Molecule `Cc1cnc(-c2cc(N3CCC(NC(=O)CO)CC3)ncc2Cl)c(C)c1` [Example A-113, N-[1-(5′-chloro-3,5-dimethyl-2,4′-bipyridin-2′-yl)piperidin-4-yl]-2-hydroxyacetamide] has an IC50 (human Smo) of 0.0556 µM, an inhibition at 0.05 µM (human Smo) of 84% and an IC50 (Gli-Luc/MEF cells) of 0.0117 µM.

Work on `Cc1cccnc1-c1cc(N2CCC(C(=O)NCC3CCCCO3)CC2)ncc1Cl` (stereo not shown) [Example A-83, 1-(5′-chloro-3-methyl-2,4′-bipyridin-2′-yl)-N-(tetrahydro-2H-pyran-2-ylmethyl)piperidine-4-carboxamide] yielded an IC50 (human Smo) of 0.138 µM, an inhibition at 0.05 µM (human Smo) of 78.9% and an IC50 (Gli-Luc/MEF cells) of 0.0485 µM.

For `Cc1cccnc1-c1cc(N2CCC(C(=O)Nc3cnn(C)n3)CC2)ncc1Cl` [Example A-88, 1-(5′-chloro-3-methyl-2,4′-bipyridin-2′-yl)-N-(2-methyl-2H-1,2,3-triazol-4-yl)piperidine-4-carboxamide], the IC50 (human Smo) was 0.049 µM, the inhibition at 0.05 µM (human Smo) was 85.6% and the IC50 (Gli-Luc/MEF cells) was 0.053 µM.

For `Cc1cccnc1-c1cc(N2CCC(C(=O)NC3CCOC4(CCN(C)CC4)C3)CC2)ncc1Cl` (stereo not shown) [Example A-84, 1-(5′-chloro-3-methyl-2,4′-bipyridin-2′-yl)-N-(9-methyl-1-oxa-9-azaspiro[5.5]undec-4-yl)piperidine-4-carboxamide], the IC50 (human Smo) was 0.283 µM, the inhibition at 0.05 µM (human Smo) was 71.5% and the IC50 (Gli-Luc/MEF cells) was 0.092 µM.

`CS(=O)(=O)CC1CCN(c2ccc(Cl)c(-c3ccccn3)n2)CC1` [Example A-53, 3-chloro-6-{4-[(methylsulfonyl)methyl]piperidin-1-yl}-2,2′-bipyridine] gave an IC50 (human Smo) of 0.0382 µM, an inhibition at 0.05 µM (human Smo) of 93.3% and an IC50 (Gli-Luc/MEF cells) of 0.0273 µM.

In the case of `Cc1ccc(-c2nc(N3CCN(C(=O)CCS(C)(=O)=O)CC3)ccc2Cl)nc1` [Example A-147, 1-[4-(3-chloro-5′-methyl-2,2′-bipyridin-6-yl)piperazin-1-yl]-3-(methylsulfonyl)propan-1-one], the inhibition at 0.05 µM (human Smo) is reported as 94.7% and the IC50 (Gli-Luc/MEF cells) is reported as 0.0144 µM.

Molecule `Cc1cccnc1-c1cc(N2CCC(CS(C)(=O)=O)CC2)ncc1Cl` [Example A-51, 5′-chloro-3-methyl-2′-{4-[(methylsulfonyl)methyl]piperidin-1-yl}-2,4′-bipyridine] has an IC50 (human Smo) of 0.0358 µM, an inhibition at 0.05 µM (human Smo) of 87.8% and an IC50 (Gli-Luc/MEF cells) of 0.0236 µM.

With `Cc1cnc(-c2cc(N3CCN(S(C)(=O)=O)CC3)ncc2Cl)c(C)c1` [Example A-104, 5′-chloro-3,5-dimethyl-2′-[4-(methylsulfonyl)piperazin-1-yl]-2,4′-bipyridine] the IC50 (human Smo) was 0.036 µM, the inhibition at 0.05 µM (human Smo) was 92.9% and the IC50 (Gli-Luc/MEF cells) was 0.0127 µM.

Work on `Cc1cc(F)cnc1-c1cc(N2CCC(NC(=O)CN(C)C)CC2)ncc1Cl` [Example A-145, N-[1-(5′-chloro-5-fluoro-3-methyl-2,4′-bipyridin-2′-yl)piperidin-4-yl]-N^2,N^2-dimethylglycinamide] yielded an IC50 (human Smo) of 0.0662 µM, an inhibition at 0.05 µM (human Smo) of 88.9% and an IC50 (Gli-Luc/MEF cells) of 0.0113 µM.

For `COCCC(=O)N1CCN(c2cc(-c3ncccc3C)c(Cl)cn2)CC1` [Example A-29, 5′-chloro-2′-[4-(3-methoxypropanoyl)piperazin-1-yl]-3-methyl-2,4′-bipyridine], the IC50 (human Smo) was 0.0523 µM, the inhibition at 0.05 µM (human Smo) was 89.3% and the IC50 (Gli-Luc/MEF cells) was 0.0425 µM.

With `NS(=O)(=O)CC1CCN(c2ccc(Cl)c(-c3ccccn3)n2)CC1` [Example A-91, 1-[1-(3-chloro-2,2′-bipyridin-6-yl)piperidin-4-yl]methanesulfonamide] the IC50 (human Smo) was 0.0263 µM, the inhibition at 0.05 µM (human Smo) was 92.7% and the IC50 (Gli-Luc/MEF cells) was 0.0286 µM.

`O=S(=O)(CCO)N1CCN(c2ccc(Cl)c(-c3ccccn3)n2)CC1` [Example A-137, 2-{[4-(3-chloro-2,2′-bipyridin-6-yl)piperazin-1-yl]sulfonyl}ethanol] gave an inhibition at 0.05 µM (human Smo) of 45.8%.

Molecule `CS(=O)(=O)NC1CCN(c2cc(-c3ccccn3)c(Cl)cn2)CC1` [Example A-7, N-[1-(5′-chloro-2,4′-bipyridin-2′-yl)piperidin-4-yl]methanesulfonamide] has an inhibition at 0.05 µM (human Smo) of 45%.
